Results from US20170246210A1, “EX-VIVO INDUCED REGULATORY MESENCHYMAL STEM CELLS OR MYELOID-DERIVED SUPPRESSOR CELLS AS IMMUNE MODULATORS” (HADASIT MEDICAL RESEARCH SERVICES & DEVELOPMENT LTD, priority 2014, published 2017).

Tests used:
[1] = test system: hMSCs; assay: qPCR expression analysis in treated human MSCs; format: cell-based; details: for upregulation of COX2 by kynurenine: human MSCs, presence or absence of 10 μM CH-223191
Description: Human MSCs (hMSCs). Bone marrow for hMHC was obtained from 17 adult healthy donors, males and females, following informed consent and under institutional Helsinki approval; hMSCs were cultured as previously described and the cells were used for experiments after 3-6 passages (Resnick, Barkats et al. 2013). TCT MSCs were treated with 40pM hTGFβ (PeproTech, Israel) for 24 h, and then with a cocktail of 40 pM hTGFβ, 100 ng/ml h/mIFNγ (PeproTech, Israel) and 150 μM Kynurenine (Sigma, Switzerland) for an additional 24 h before they were used for experiments. RNA extraction and PCR analysis. Total cellular RNA was extracted using RNeasy® Mini Kit columns (QIAGEN) according to the manufacturer's protocols. 1 μg of total RNA was used to synthesize cDNA using High-Capacity cDNA kit (Applied Biosystems) following the supplier's instructions. Detection of transcript levels of iNOS, IDO, COX2, IL-6, CYP1a1 and CYP1b1, were performed using the TaqMan Gene Expression Assay Kit (Applied Biosystems), using HPRT-1 as a reference. All primers were purchased from Applied Biosystems. Real-Time PCR reactions were conducted using StepOne Plus (Applied Biosystems). Data was analyzed by StepOne Software version 2.2 (Applied Biosystems).

[2] = test system: mMSCs; assay: FACS analysis of surface expression on mouse MSCs; format: cell-based; details: for EGFR surface expression: kynurenine 5 hours, with/without 10 μM CH-223191 pre-treatment 16 hours; for MHC I expression: FACS
Description: (§1) TCT MSCs were treated with 40pM hTGFβ (PeproTech, Israel) for 24 h, and then with a cocktail of 40 pM hTGFβ, 100 ng/ml h/mIFNγ (PeproTech, Israel) and 150 μM Kynurenine (Sigma, Switzerland) for an additional 24 h before they were used for experiments.
(§2) FACS analysis. The phenotype of the MSCs was analyzed by FACS using anti-CD29-PB and anti-hCD45-FITC (Biolegend), anti-CD11b-APC, anti-CD44-PE and anti-mCD45-FITC (SouthernBiotech), anti-CD105-PB, anti-CD73-PE, anti-CD90-PE and anti-Sca1-PE (eBioscience), anti-CD44-V450, anti-CD105-APC, anti-HLA DR-APC and anti-HLA ABC-PE (BD Bioscience) antibodies. The expression level of PD-L1 in mMSCs was analyzed by FACS with anti-B7-H1-PE (PD-L1) (eBioscience). To analyze EGFR internalization in kynurenine treated mMSCs, mMSCs were cultured in the presence of 10 μM CH223191 (Merck-Millipore) for 16 hours and then kynurenine was added for an additional 5 hours. EGFR expression was analyzed by FACS using anti-EGFR-PE (Bioss). FACS was performed using the aMACSQuant analyzer (Miltenyi Biotech, Germany) and the data was analyzed using FCS Express V3 software.

[3] = target: T1, aryl hydrocarbon receptor (AhR) (Homo sapiens, UniProt P35869); assay: AhR activation in human MSCs (qPCR of AhR dependent gene Cyp1a1); format: cell-based
T1 construct: Mouse and human MSCs were obtained from C57BL/6 mice and healthy donor BM respectively; endogenous in cells; host or cells: primary human MSCs from healthy donor bone marrow
T1 sequence (P35869 11-848): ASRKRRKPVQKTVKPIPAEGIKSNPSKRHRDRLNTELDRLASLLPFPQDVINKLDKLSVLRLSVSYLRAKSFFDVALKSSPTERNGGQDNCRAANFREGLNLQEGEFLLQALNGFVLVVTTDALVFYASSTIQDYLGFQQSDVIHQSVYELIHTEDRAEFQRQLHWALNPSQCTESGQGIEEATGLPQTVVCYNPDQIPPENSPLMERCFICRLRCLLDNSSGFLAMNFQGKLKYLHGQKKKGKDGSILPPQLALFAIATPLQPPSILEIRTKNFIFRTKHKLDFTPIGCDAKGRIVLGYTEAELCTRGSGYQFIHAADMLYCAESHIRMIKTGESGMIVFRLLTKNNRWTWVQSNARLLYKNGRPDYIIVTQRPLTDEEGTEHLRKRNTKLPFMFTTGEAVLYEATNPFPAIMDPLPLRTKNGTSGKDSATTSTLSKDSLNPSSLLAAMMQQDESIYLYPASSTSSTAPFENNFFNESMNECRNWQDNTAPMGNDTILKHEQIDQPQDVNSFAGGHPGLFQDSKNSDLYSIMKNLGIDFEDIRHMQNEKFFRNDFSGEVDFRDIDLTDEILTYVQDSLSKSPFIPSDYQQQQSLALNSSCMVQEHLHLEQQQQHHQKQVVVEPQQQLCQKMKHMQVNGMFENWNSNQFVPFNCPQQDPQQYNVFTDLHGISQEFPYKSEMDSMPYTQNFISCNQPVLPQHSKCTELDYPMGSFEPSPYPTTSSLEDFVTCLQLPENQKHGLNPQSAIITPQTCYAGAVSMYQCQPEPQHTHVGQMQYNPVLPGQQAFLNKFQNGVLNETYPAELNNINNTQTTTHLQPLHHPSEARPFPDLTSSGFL
Description: (§3) RNA extraction and PCR analysis. Total cellular RNA was extracted using RNeasy® Mini Kit columns (QIAGEN) according to the manufacturer's protocols. 1 μg of total RNA was used to synthesize cDNA using High-Capacity cDNA kit (Applied Biosystems) following the supplier's instructions. Detection of transcript levels of iNOS, IDO, COX2, IL-6, CYP1a1 and CYP1b1, were performed using the TaqMan Gene Expression Assay Kit (Applied Biosystems), using HPRT-1 as a reference. All primers were purchased from Applied Biosystems. Real-Time PCR reactions were conducted using StepOne Plus (Applied Biosystems). Data was analyzed by StepOne Software version 2.2 (Applied Biosystems).
(§4) To evaluate whether kynurenine activates AhR in mMSCs, the mRNA of treated/non-treated MSCs were tested for the expression level of two AhR dependent genes, Cyp1a1 and Cyp1b1. […] To ascertain that the up-regulation of these genes is AhR dependent, MSCs were treated with kynurenine for 24 hours in the presence/absence of the AhR antagonist CH-223191. The up-regulation of Cyp1a1 by kynurenine is inhibited in the presence of the antagonist both in mouse and human MSCs (previous FIGS. 9B, C).

[4] = target: T2, aryl hydrocarbon receptor (AhR) (Mus musculus, UniProt P30561); assay: AhR activation in mouse MSCs (qPCR of AhR dependent genes Cyp1a1, Cyp1b1); format: cell-based
T2 construct: Mouse and human MSCs were obtained from C57BL/6 mice and healthy donor BM respectively; endogenous in cells; host or cells: primary mouse MSCs from C57BL/6 mice
T2 sequence (P30561 10-805 limits assumed): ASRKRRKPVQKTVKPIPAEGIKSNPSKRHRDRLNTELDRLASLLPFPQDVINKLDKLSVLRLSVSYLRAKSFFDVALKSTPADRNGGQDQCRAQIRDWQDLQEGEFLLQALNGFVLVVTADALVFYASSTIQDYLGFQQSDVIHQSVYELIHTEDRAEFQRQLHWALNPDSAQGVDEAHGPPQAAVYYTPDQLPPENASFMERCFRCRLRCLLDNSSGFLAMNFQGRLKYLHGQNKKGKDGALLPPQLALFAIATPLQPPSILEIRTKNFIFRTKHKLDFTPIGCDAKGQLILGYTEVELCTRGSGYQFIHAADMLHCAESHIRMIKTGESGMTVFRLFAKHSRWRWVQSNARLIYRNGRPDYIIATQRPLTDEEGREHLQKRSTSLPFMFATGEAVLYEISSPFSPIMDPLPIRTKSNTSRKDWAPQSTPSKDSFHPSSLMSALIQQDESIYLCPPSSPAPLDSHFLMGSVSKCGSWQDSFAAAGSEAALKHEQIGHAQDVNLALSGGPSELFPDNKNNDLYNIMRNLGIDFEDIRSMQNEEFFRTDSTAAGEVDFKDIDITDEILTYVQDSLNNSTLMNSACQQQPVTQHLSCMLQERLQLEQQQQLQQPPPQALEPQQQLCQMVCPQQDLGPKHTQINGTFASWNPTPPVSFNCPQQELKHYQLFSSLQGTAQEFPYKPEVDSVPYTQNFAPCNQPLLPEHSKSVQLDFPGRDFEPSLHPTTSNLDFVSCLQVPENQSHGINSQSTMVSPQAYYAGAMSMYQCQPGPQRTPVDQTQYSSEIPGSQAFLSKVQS
Description: as §3, §4

[5] = test system: mMSCs; assay: qPCR expression analysis in treated mouse MSCs; format: cell-based; details: for IL-6 mRNA expression: combination treatments, with/without 10 μM CH-223191; for COX2 mRNA expression: qPCR, combinations of TGFβ, IFNγ, kynurenine
Description: MSCs isolation and culture. Mouse MSCs (mMSCs) were obtained from the bone marrow (BM) of C57BL/6 mice. BM cells were cultured at a concentration of 1*10^6 cells/ml in Mesencult basal medium supplemented with MSC stimulatory supplements (StemCell Technologies, Vancouver, BC), at 37° C. with 10% CO2. After 2-3 passages, the cells were harvested and CD11b^+ cells were depleted by EasySep® cell separation kit (StemCell Technologies, Vancouver, BC). Cells from 3 different lines were used for experiments after 5-20 passages.
as §1
RNA extraction and PCR analysis. Total cellular RNA was extracted using RNeasy® Mini Kit columns (QIAGEN) according to the manufacturer's protocols. 1 μg of total RNA was used to synthesize cDNA using High-Capacity cDNA kit (Applied Biosystems) following the supplier's instructions. Detection of transcript levels of iNOS, IDO, COX2, IL-6, CYP1a1 and CYP1b1, were performed using the TaqMan Gene Expression Assay Kit (Applied Biosystems), using HPRT-1 as a reference. All primers were purchased from Applied Biosystems. Real-Time PCR reactions were conducted using StepOne Plus (Applied Biosystems). Data was analyzed by StepOne Software version 2.2 (Applied Biosystems). […]

[6] = test system: mMSCs; assay: ELISA on supernatants of treated mMSCs; format: cell-based, mouse
Description: ELISA. Quantification of PGE2 in supernatants collected from treated mMSCs and from co-cultures with splenocytes after 72 hours of culture, was performed by competitive enzyme-linked immunosorbent assay (ELISA) technique using a commercially available ELISA kit (R&D Systems, Minn., USA). IL-6, IL-17A and IFNγ in supernatants collected from treated mMSCs and/or from co-cultures with splenocytes/PBMCs were quantified using the ELISA Ready SET Go kits (eBioscience, San Diego, Calif., USA), according to the manufacturer's instructions. All determinations were made in triplicates.

[7] = test system: hMSCs; assay: FACS analysis of surface expression on human MSCs; format: cell-based; details: IFNγ induced
Description: as §1, §2

[8] = kynurenine 24 hours, 10 μM CH-223191
[9] = mouse MSCs, presence or absence of 10 μM CH-223191
[10] = murine MSCs, kynurenine alone vs non-treated

Cc1ccccc1N=Nc1ccc(NC(=O)c2ccnn2C)c(C)c1 [CH-223191]
upregulation of COX2 by kynurenine [1]: reversed
EGFR surface expression [2]: restored EGFR expression on the cell surface
up-regulation of Cyp1a1 by kynurenine in presence of antagonist [3, 8]: inhibited
up-regulation of Cyp1a1 by kynurenine in presence of antagonist [4, 8]: inhibited
IL-6 mRNA expression ([5]; mMSCs): partially reversed the effects of kynurenine
enhanced expression of LIF [5, 9]: reversed
upregulation of COX2 by kynurenine [5, 9]: reversed

Nc1ccccc1C(=O)CC(N)C(=O)O (stereo not shown) [kynurenine]
IL-6 secretion ([6]; mMSCs culture medium): restricted this elevation
COX2 mRNA expression ([1]; hMSCs, addition of kynurenine): significantly elevated
upregulation of COX2 by kynurenine [1]: AhR dependent
EGFR surface expression [2]: significantly reduced
AhR activation [3]: activates
AhR activation [4]: activates
IL-6 mRNA expression ([5]; mMSCs): restricted this elevation
HO-1 mRNA expression ([5]; mMSCs, kynurenine added to the DCT): significantly up-regulated
COX2 mRNA expression ([5]; mMSCs): significant additive effects on the up-regulation
upregulation of COX2 by kynurenine [5, 9]: AhR dependent
COX2 expression [5, 10]: no effect
IDO expression [5, 10]: no effect
IL6 expression [5, 10]: no effect
iNOS expression [5, 10]: no effect

IFNγ
PGE2 secretion ([6]; mMSCs supernatants): no effect
MHC I expression [2]: induces up-regulation
COX2 mRNA expression ([5]; mMSCs): no effect

TGFβ
MHC I expression [7]: reduced the IFNγ induced expression
MHC II expression [7]: reduced the IFNγ induced expression
MHC I expression [2]: reduced the elevated expression
COX2 mRNA expression ([5]; mMSCs): increased
